Values quoted from earlier work as cited in patent US20140287011A1, “ARTHROPOD PEST CONTROL COMPOSITION” (SUMITOMO CHEMICAL COMPANY, LIMITED, priority 2011, published 2014).

Details: water at 20° C.

## CCOc1cc(C(C)(C)C)ccc1C1COC(c2c(F)cccc2F)=N1 (stereo not shown) [the present oxazole compound, 2-(2,6-difluorophenyl)-4-[4-(1,1-dimethylethyl)-2-ethoxyphenyl]-4,5-dihydrooxazole]
  solubility: 75.4 pg per 1 liter
